Structures can show the parent of a compound that is named as a salt.
What follows are molecules tested against T1, human Y4 receptor (Homo sapiens, UniProt P50391) (assay: NPY4 cAMP HTRF Agonist Assay (inhibitory cAMP assay, Gi activation by Y4 agonism)). Settings: TABLE 2, R2 is Phenyl-CN; read-out: hY4 CAMP EC50.
T1 construct: expressed in transfected cells
Assay type: cell-based
How it was run: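 Y4 agonism read as lowered forskolin-stimulated cAMP (HTRF, 1 h detection at room temperature). Stable human Y4 CHO clone, 5000 cells/well, incubated 30 min at room temperature with compounds plus forskolin and IBMX in PBS.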

T1 sequence (P50391 whole entry): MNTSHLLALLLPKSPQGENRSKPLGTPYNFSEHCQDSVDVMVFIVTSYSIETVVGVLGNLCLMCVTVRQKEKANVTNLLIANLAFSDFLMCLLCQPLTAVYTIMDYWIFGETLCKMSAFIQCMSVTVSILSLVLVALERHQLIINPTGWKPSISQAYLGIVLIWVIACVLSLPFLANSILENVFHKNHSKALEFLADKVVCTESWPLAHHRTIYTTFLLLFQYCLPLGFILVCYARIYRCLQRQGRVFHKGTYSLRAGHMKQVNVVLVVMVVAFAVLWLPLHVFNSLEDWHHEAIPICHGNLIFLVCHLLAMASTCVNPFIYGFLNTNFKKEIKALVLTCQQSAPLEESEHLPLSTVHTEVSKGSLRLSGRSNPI

Compound	EC50
N#Cc1ccc(N2C[C@@H]3C[C@H](N[C@@H]4CCCC[C@H]4Nc4ncc(-c5ccccc5OC(F)(F)F)o4)[C@H]2C3)cc1 [Example 224]	2 nM
N#Cc1ccc(N2CCC[C@H](N[C@@H]3CCCC[C@H]3Nc3cc(-c4ccco4)ccn3)C2)cc1 [Example 247]	15 nM
N#Cc1ccc(N2C[C@@H]3C[C@H](N[C@@H]4CCCC[C@H]4Nc4cc(-c5cccc(C(N)=O)c5)ccn4)[C@H]2C3)cc1 [Example 231]	8 nM

The next lines start with the values.

EC50	Compound
215 nM	N#Cc1ccc(N2CCC[C@H](N[C@@H]3CCCC[C@H]3Nc3cc(-c4ccc5cn[nH]c5c4)ccn3)C2)cc1 [Example 215]
379 nM	C=Cc1ccnc(N[C@@H]2CCCC[C@H]2N[C@H]2CCCN(c3ccc(C#N)cc3)C2)c1 [Example 246]
1 nM	COC(=O)Nc1cccc(-c2cnc(N[C@@H]3CCCC[C@H]3N[C@H]3CCCN(c4ccc(C#N)cc4)C3)o2)c1 [Example 282]
211 nM	COC(=O)c1ccccc1-c1ccnc(N[C@@H]2CCCC[C@H]2N[C@H]2CCCN(c3ccc(C#N)cc3)C2)c1 [Example 203]

Same assay, conditions: TABLE 4, R2 is Pyridinyl-CN; read-out: hY4 CAMP EC50

EC50	Compound
130 nM	N#Cc1ccc(N2CCC[C@H](N[C@@H]3CCCC[C@H]3Nc3cc(-c4cccc(C(N)=O)c4)ccn3)C2)nc1 [Example 300]
124 nM	N#Cc1ccc(N2CCCC(N[C@@H]3CCCC[C@H]3Nc3cc(-c4cccc(C(N)=O)c4)ccn3)C2)cn1 (stereo partly shown) [Example 312]

Same assay, conditions: TABLE 5, R2 is Pyridinyl-CF3; read-out: hY4 CAMP EC50

EC50	Compound
3 nM	O=C(Nc1cccc(-c2cnc(N[C@@H]3CCCC[C@H]3N[C@H]3CCCN(c4ccc(C(F)(F)F)nc4)C3)o2)c1)C1CC1 [Example 334]
1600 nM	COc1ccc(-c2cnc(N[C@@H]3CCCC[C@H]3N[C@H]3CCCN(c4ccc(C(F)(F)F)nc4)C3)o2)cc1C#N [Example 335]

Same assay, conditions: TABLE 7, R2 is Pyridinyl-oxadiazole-CH3; read-out: hY4 CAMP EC50

EC50	Compound
5 nM	Cc1nc(-c2ccc(N3CCC[C@](C)(N[C@@H]4CCCC[C@H]4Nc4cc(-c5cccc(C(N)=O)c5)ccn4)C3)cn2)no1 [Example 381]
1 nM	Cc1nc(-c2ccc(N3CCC[C@H](N[C@@H]4CCCC[C@H]4Nc4cc(-c5cccc(C(N)=O)c5)ccn4)C3)nc2)no1 [Example 393]
427 nM	Cc1nc(-c2ccc(N3CCC[C@H](N[C@@H]4CCCC[C@H]4Nc4ncc(-c5ccc(OC(F)(F)F)cc5)o4)C3)cn2)no1 [Example 394]

Same assay, conditions: human Y4 receptor, cAMP; read-out: hY4 CAMP EC50

Compound	EC50
Cc1noc(-c2ccc(N3CCC[C@H](N[C@@H]4CCCC[C@H]4Nc4cc(-c5cccc(C(C)(C)O)c5)ccn4)C3)cc2)n1 [Example 362]	23 nM
COC(=O)Nc1cccc(-c2ccnc(N[C@@H]3CCCC[C@H]3N[C@H]3CCCN(c4ccc(-c5ncn(C)n5)cc4)C3)c2)c1 [Example 455]	2 nM
Cc1nc(-c2ccc(N3CCC[C@H](N[C@@H]4CCCC[C@H]4Nc4cc(-c5ccc(F)c(F)c5)ccn4)C3)cc2)no1 [Example 342]	8 nM
N#Cc1cnc(N2CCCC(N[C@@H]3CCCC[C@H]3Nc3ncc(-c4cccc(C(N)=O)c4)o3)C2)nc1 (stereo partly shown) [Example 437]	35 nM
COC(=O)c1cccc(-c2cnc(N[C@@H]3CCCC[C@H]3N[C@H]3CCCN(c4ccc5ncnn5c4)C3)o2)c1 [Example 484]	312 nM
NC(=O)c1cccc(-c2ccnc(N[C@@H]3CCCC[C@H]3N[C@H]3CCCN(c4ccc(-n5cccn5)cc4)C3)c2)c1 [Example 511]	23 nM

More lines, now with the values ahead:

EC50	Compound
121 nM	NC(=O)c1cccc(-c2ccnc(N[C@@H]3CCCC[C@H]3N[C@H]3CCCN(c4cnc(C(F)(F)F)nc4)C3)c2)c1 [Example 408]
578 nM	N#Cc1cc(N2C[C@@H]3C[C@H](N[C@@H]4CCCC[C@H]4Nc4ncc(-c5cccc(C(N)=O)c5)o4)[C@H]2C3)ncn1 [Example 439]
2 nM	Cc1nc(-c2ncc(N3CCC[C@H](N[C@@H]4CCCC[C@H]4Nc4cc(-c5ccc(F)c(F)c5)ccn4)C3)cn2)no1 [Example 467]
2 nM	CNC(=O)c1cccc(-c2cnc(N[C@@H]3CCCC[C@H]3N[C@H]3CCCN(c4cnc(C(F)(F)F)cn4)C3)o2)c1 [Example 429]
1 nM	Cc1noc(-c2ccc(N3CCC[C@H](N[C@@H]4CCCC[C@H]4Nc4ncc(-c5cccc(C(N)=O)c5)o4)C3)cc2)n1 [Example 379]
306 nM	Cc1nnc(-c2ccc(N3CCC[C@H](N[C@@H]4CCCC[C@H]4Nc4ncc(-c5cccc(C(N)=O)c5)o4)C3)cc2)o1 [Example 346]

Same assay, conditions: human Y4 stable CHO clonal cells, forskolin + IBMX; read-out: NPY4 cAMP HTRF Agonist Assay EC50

Compound	EC50
COc1ccc(-c2ccnc(N[C@@H]3CCCC[C@H]3N[C@H]3CCCN(c4ccc([N+](=O)[O-])cc4)C3)n2)cc1 [Example 31, (1R,2R)—N1-(4-(4-Methoxyphenyl)pyrimidin-2-yl)-N2-((S)-1-(4-nitrophenyl)piperidin-3-yl)cyclohexane-1,2-diamine]	241 nM
Cc1nnc(-c2ccc(N3CCC[C@H](N[C@@H]4CCCC[C@H]4Nc4ncc(-c5ccccc5)o4)C3)cc2)o1 [Example 83, (1R,2R)—N1-((S)-1-(4-(5-Methyl-1,3,4-oxadiazol-2-yl)phenyl)piperidin-3-yl)-N2-(5-phenyloxazol-2-yl)cyclohexane-1,2-diamine bis-trifluoroacetate]	9 nM
N#Cc1ccnc(N[C@@H]2CCCC[C@H]2N[C@H]2CCCN(c3ccc(C(F)(F)F)cc3)C2)c1 [Example 114, 2-(((1R,2R)-2-(((S)-1-(4-(trifluoromethyl)phenyl)piperidin-3-yl)amino)cyclohexyl)amino)isonicotinonitrile, bis trifluoroacetic acid salt]	70 nM
O=[N+]([O-])c1ccc(N2CCC[C@H](N[C@@H]3CCCC[C@H]3Nc3ncc(-c4cccc(F)c4)o3)C2)cc1 [Example 19, (1R,2R)—N1-(5-(3-Fluorophenyl)oxazol-2-yl)-N2-((S)-1-(4-nitrophenyl)piperidin-3-yl)cyclohexane-1,2-diamine]	23 nM
O=[N+]([O-])c1ccc(N2C[C@@H]3C[C@H](N[C@@H]4CCCC[C@H]4Nc4ncc(-c5ccccc5)o4)[C@H]2C3)cc1 [Example 6, (1R,2R)—N1-((1R,4R,6S)-2-(4-Nitrophenyl)-2-azabicyclo[2.2.1]heptan-6-yl)-N2-(5-phenyloxazol-2-yl)cyclohexane-1,2-diamine]	6 nM
FC(F)(F)Oc1ccc(-c2cnc(N[C@@H]3CCCC[C@H]3N[C@H]3CCCN(c4ncc(C(F)(F)F)cn4)C3)o2)cc1 [Example 80, (1R,2R)—N1-(5-(4-(Trifluoromethoxy)phenyl)oxazol-2-yl)-N2-((S)-1-(5-(trifluoromethyl)pyrimidin-2-yl)piperidin-3-yl)cyclohexane-1,2-diamine bis-trifluoroacetate]	242 nM

Other lines, results leading:

EC50	Compound
61 nM	c1ccc(-c2cnc(N[C@@H]3CCCC[C@H]3N[C@H]3CCCN(c4ccc(-n5cccn5)cc4)C3)o2)cc1 [Example 62, (1R,2R)—N1-((S)-1-(4-(1H-Pyrazol-1-yl)phenyl)piperidin-3-yl)-N2-(5-phenyloxazol-2-yl)cyclohexane-1,2-diamine trifluoroacetate]
150 nM	Cn1nccc1-c1ccnc(N[C@@H]2CCCC[C@H]2N[C@H]2CCCN(c3ccc(C#N)cc3)C2)c1 [Example 34, 4-((S)-3-((1R,2R)-2-(4-(1-Methyl-1H-pyrazol-5-yl)pyridin-2-ylamino)cyclohexylamino)piperidin-1-yl)benzonitrile tris-trifluoroacetate]
236 nM	O=[N+]([O-])c1ccc(N2CCC[C@H](N[C@@H]3CCCC[C@H]3Nc3nc4cc(OC(F)(F)F)ccc4o3)C2)cc1 [Example 4, (1R,2R)—N1-((S)-1-(4-Nitrophenyl)piperidin-3-yl)-N2-(5-(trifluoromethoxy)benzo[d]oxazol-2-yl)cyclohexane-1,2-diamine]
89 nM	c1ccc(-c2ccnc(N[C@@H]3CCCC[C@H]3N[C@H]3CCCN(c4ccc(-n5cccn5)cc4)C3)n2)cc1 [Example 64, (1R,2R)—N1-((S)-1-(4-(1H-Pyrazol-1-yl)phenyl)piperidin-3-yl)-N2-(4-phenylpyrimidin-2-yl)cyclohexane-1,2-diamine bis-trifluoroacetate]
0.8 nM	O=C(NC1CC1)c1cccc(-c2cnc(N[C@@H]3CCCC[C@H]3N[C@H]3CCCN(c4ccc(C(F)(F)F)nc4)C3)o2)c1 [Example 99, N-cyclopropyl-(3-(2-((1R,2R)-2((S)-1-(6-trifluoromethyl)pyridin-3yl)piperidin-3-ylamino)cyclohexylamino)oxazol-5-yl)benzamide]

Same assay, conditions: second TABLE 1, R2 is Phenyl-CF3; read-out: hY4 CAMP EC50

Compound	EC50
OC1(c2cccc(-c3cnc(N[C@@H]4CCCC[C@H]4N[C@H]4CCCN(c5ccc(C(F)(F)F)cc5)C4)o3)c2)CC1 [Example 154]	36 nM
CN(C)Cc1cccc(-c2ccnc(N[C@@H]3CCCC[C@H]3N[C@H]3CCCN(c4ccc(C(F)(F)F)cc4)C3)c2)c1 [Example 131]	1110 nM
CNCc1cccc(-c2ccnc(N[C@@H]3CCCC[C@H]3N[C@H]3CCCN(c4ccc(C(F)(F)F)cc4)C3)c2)c1 [Example 144]	26 nM
FC(F)(F)c1ccc(N2CCC[C@H](N[C@@H]3CCCC[C@H]3Nc3ncc(-c4ccccc4)cn3)C2)cc1 [Example 176]	579 nM
CC(C)(C)OC(=O)Nc1cccc(-c2cnc(N[C@@H]3CCCC[C@H]3N[C@H]3CCCN(c4ccc(C(F)(F)F)cc4)C3)o2)c1 [Example 169]	32 nM
CCCCNC(=O)c1cccc(-c2ccnc(N[C@@H]3CCCC[C@H]3N[C@H]3CCCN(c4ccc(C(F)(F)F)cc4)C3)c2)c1 [Example 141]	227 nM
OCc1cccc(-c2ccnc(N[C@@H]3CCCC[C@H]3N[C@H]3CCCN(c4ccc(C(F)(F)F)cc4)C3)c2)c1 [Example 129]	41 nM

Continued, values first:

EC50	Compound
48 nM	FC(F)(F)c1ccc(N2CCC[C@H](N[C@@H]3CCCC[C@H]3Nc3cc(-c4ccncc4)ccn3)C2)cc1 [Example 191]
13 nM	CC(C)OC(=O)Nc1cccc(-c2ccnc(N[C@@H]3CCCC[C@H]3N[C@H]3CCCN(c4ccc(C(F)(F)F)cc4)C3)c2)c1 [Example 134]

Reference: patent US8815909B2, “Diaminocyclohexane compounds and uses thereof” (Bristol-Myers Squibb Company, priority 2011, dated 2014)
